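Exposure lasted 48 hours, with cells grown in 96-well plates and compounds tested at five concentrations. Here, GI50 denotes the concentration required for 50% inhibition of growth.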 The source made the active and inactive calls. Cut-off read from the data, not from the text of the source: active = GI50 up to about 1.1 µM and inactive = higher.
What was measured:
Experiment in all cases: growth of human tumour cells (NCI), 48 h
[1] = tested on: 786-0
[2] = tested on: A498
[3] = tested on: A549
[4] = tested on: ACHN
[5] = tested on: BT-549
[6] = tested on: CAKI-1
[7] = tested on: COLO 205
[8] = tested on: DU-145
[9] = tested on: EKVX
[10] = tested on: HCC 2998
[11] = tested on: HCT-116
[12] = tested on: HCT-15
[13] = tested on: HL-60
[14] = tested on: HOP-62
[15] = tested on: HOP-92
[16] = tested on: HT-29
[17] = tested on: Hs-578T
[18] = tested on: IGROV-1
[19] = tested on: K562
[20] = tested on: KM12
[21] = tested on: LOX IMVI
[22] = tested on: M14
[23] = tested on: MCF7
[24] = tested on: MDA-MB-231
[25] = tested on: MDA-MB-435
[26] = tested on: MDA-N
[27] = tested on: Malme-3M
[28] = tested on: NCI-H226
[29] = tested on: NCI-H23
[30] = tested on: NCI-H460
[31] = tested on: NCI-H522
[32] = tested on: NCI/ADR-RES
[33] = tested on: OVCAR-3
[34] = tested on: OVCAR-4
[35] = tested on: OVCAR-5
[36] = tested on: OVCAR-8
[37] = tested on: PC-3
[38] = tested on: RPMI-8226
[39] = tested on: RXF 393
[40] = tested on: SF-268
[41] = tested on: SF-295
[42] = tested on: SF-539
[43] = tested on: SK-MEL-28
[44] = tested on: SK-MEL-2
[45] = tested on: SK-MEL-5
[46] = tested on: SK-OV-3
[47] = tested on: SN12C
[48] = tested on: SNB-19
[49] = tested on: SNB-75
[50] = tested on: SR
[51] = tested on: SW-620
[52] = tested on: T47D
[53] = tested on: TK-10
[54] = tested on: U-251
[55] = tested on: UACC-257
[56] = tested on: UACC-62
[57] = tested on: UO-31
[58] = tested on: CCRF-CEM

## O=C(Oc1ccc(S(=O)(=O)F)cc1F)c1ccccc1Cl
[1]
  GI50: 33.7 µM (inactive)
[2]
  GI50: 57.5 µM (inactive)
[3]
  GI50: 35.5 µM (inactive)
[4]
  GI50: 56 µM (inactive)
[5]
  GI50: 39.2 µM (inactive)
[6]
  GI50: 64.9 µM (inactive)
[7]
  GI50: 19.5 µM (inactive)
[8]
  GI50: 28.1 µM (inactive)
[9]
  GI50: 24.4 µM (inactive)
[10]
  GI50: 42.6 µM (inactive)
[11]
  GI50: 47.2 µM (inactive)
[12]
  GI50: 37.5 µM
[13]
  GI50: 35.6 µM (inactive)
[14]
  GI50: 34.8 µM (inactive)
[15]
  GI50: 20.2 µM (inactive)
[16]
  GI50: 27 µM (inactive)
[17]
  GI50: 25.2 µM (inactive)
[18]
  GI50: 30.8 µM (inactive)
[19]
  GI50: 42.1 µM (inactive)
[20]
  GI50: 30.4 µM (inactive)
[21]
  GI50: 31.8 µM (inactive)
[22]
  GI50: 30.8 µM (inactive)
[23]
  GI50: 29.5 µM (inactive)
[24]
  GI50: 23.8 µM (inactive)
[25]
  GI50: 29.6 µM (inactive)
[26]
  GI50: 33.3 µM (inactive)
[27]
  GI50: 31.8 µM (inactive)
[28]
  GI50: 31 µM (inactive)
[29]
  GI50: 23.9 µM (inactive)
[30]
  GI50: 27.3 µM (inactive)
[31]
  GI50: 18.3 µM (inactive)
[32]
  GI50: 35.2 µM (inactive)
[33]
  GI50: 29.9 µM (inactive)
[34]
  GI50: 30.1 µM (inactive)
[35]
  GI50: 30.9 µM (inactive)
[36]
  GI50: 30.8 µM (inactive)
[37]
  GI50: 37.8 µM (inactive)
[38]
  GI50: 21.1 µM (inactive)
[39]
  GI50: 21.3 µM (inactive)
[40]
  GI50: 32.5 µM (inactive)
[41]
  GI50: 32.1 µM (inactive)
[42]
  GI50: 22.5 µM (inactive)
[43]
  GI50: 74 µM (inactive)
[44]
  GI50: 54.5 µM (inactive)
[45]
  GI50: 16.2 µM (inactive)
[46]
  GI50: 98.9 µM (inactive)
[47]
  GI50: 31.5 µM (inactive)
[48]
  GI50: 30.5 µM (inactive)
[49]
  GI50: 24.9 µM (inactive)
[50]
  GI50: 24.5 µM (inactive)
[51]
  GI50: 44.3 µM (inactive)
[52]
  GI50: 31.5 µM (inactive)
[53]
  GI50: 43.1 µM (inactive)
[54]
  GI50: 35.2 µM (inactive)
[55]
  GI50: 27.6 µM (inactive)
[56]
  GI50: 33.6 µM (inactive)
[57]
  GI50: 18.5 µM (inactive)

## c1ccc2c(CN3CCN(Cc4c[nH]c5ccccc45)CC3)c[nH]c2c1
[1]
  GI50: 16.1 µM (inactive)
[2]
  GI50: 14.4 µM (inactive)
[4]
  GI50: 19.3 µM (inactive)
[5]
  GI50: 22 µM (inactive)
[6]
  GI50: 23.5 µM (inactive)
[58]
  GI50: 39.9 µM (inactive)
[7]
  GI50: 5.58 µM (inactive)
[8]
  GI50: 18.3 µM (inactive)
[9]
  GI50: 13.3 µM (inactive)
[10]
  GI50: 1.63 µM (inactive)
[11]
  GI50: 14.8 µM (inactive)
[12]
  GI50: 20 µM
[13]
  GI50: 17.5 µM (inactive)
[14]
  GI50: 15.1 µM (inactive)
[15]
  GI50: 14.8 µM (inactive)
[16]
  GI50: 17.5 µM (inactive)
[17]
  GI50: 15.9 µM (inactive)
[18]
  GI50: 11.9 µM (inactive)
[19]
  GI50: 12.7 µM (inactive)
[20]
  GI50: 16.8 µM (inactive)
[21]
  GI50: 16.3 µM (inactive)
[22]
  GI50: 15.7 µM (inactive)
[23]
  GI50: 17.9 µM (inactive)
[24]
  GI50: 14.9 µM (inactive)
[25]
  GI50: 16.2 µM (inactive)
[26]
  GI50: 14.9 µM (inactive)
[27]
  GI50: 15.3 µM (inactive)
[28]
  GI50: 16.5 µM (inactive)
[29]
  GI50: 19.8 µM (inactive)
[30]
  GI50: 12.7 µM (inactive)
[31]
  GI50: 16.5 µM (inactive)
[32]
  GI50: 23 µM (inactive)
[33]
  GI50: 13.1 µM (inactive)
[34]
  GI50: 41.4 µM (inactive)
[35]
  GI50: 18.7 µM (inactive)
[36]
  GI50: 19 µM (inactive)
[37]
  GI50: 18.6 µM (inactive)
[38]
  GI50: 19.3 µM (inactive)
[39]
  GI50: 14.3 µM (inactive)
[40]
  GI50: 17.4 µM (inactive)
[41]
  GI50: 16 µM (inactive)
[43]
  GI50: 17.9 µM (inactive)
[44]
  GI50: 16.7 µM (inactive)
[45]
  GI50: 15.2 µM (inactive)
[46]
  GI50: 21.4 µM (inactive)
[47]
  GI50: 17.7 µM (inactive)
[48]
  GI50: 21.6 µM (inactive)
[49]
  GI50: 13.3 µM (inactive)
[50]
  GI50: 19.7 µM (inactive)
[51]
  GI50: 28 µM (inactive)
[52]
  GI50: 14.2 µM (inactive)
[53]
  GI50: 15.6 µM (inactive)
[54]
  GI50: 15.9 µM (inactive)
[55]
  GI50: 14.4 µM (inactive)
[56]
  GI50: 16.3 µM (inactive)
[57]
  GI50: 14.6 µM (inactive)
